From PMC8967248, “Impact of Porphyrin Binding to GENOMES UNCOUPLED 4 on Tetrapyrrole Biosynthesis in planta” (Frontiers in Plant Science, 2022)
Positions count from the first letter of the chain named.

Legend:
GUN4 (AtGUN4) [1] = target: T1, GUN4 (AtGUN4) (Arabidopsis thaliana, UniProt Q9LX31, F191A); experiment: tryptophan fluorescence quenching; type: binding; conditions: read-out: apparent Kd
T1 construct: 6xHis-tagged, pQE80_AtGUN4(WT), expressed in and purified from E. coli
T1 sequence (Q9LX31 70-265 F191A): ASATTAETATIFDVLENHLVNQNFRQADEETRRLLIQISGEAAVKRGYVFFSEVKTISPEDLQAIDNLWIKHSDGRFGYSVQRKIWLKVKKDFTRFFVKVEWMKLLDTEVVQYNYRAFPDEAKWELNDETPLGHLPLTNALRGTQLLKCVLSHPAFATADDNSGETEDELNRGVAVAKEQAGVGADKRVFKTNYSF

GUN4 (AtGUN4) [2] = target: T2, GUN4 (AtGUN4) (Arabidopsis thaliana, UniProt Q9LX31); experiment: tryptophan fluorescence quenching; type: binding; conditions: read-out: apparent Kd
T2 construct: 6xHis-tagged, pQE80_AtGUN4(WT), expressed in and purified from E. coli
T2 sequence (Q9LX31 70-265): T1 sequence (Q9LX31 70-265 F191A) with A122F

- Kd (GUN4 (AtGUN4) [1]): 2.1 ± 0.28 µM
- Kd (GUN4 (AtGUN4) [2]): 1.05 ± 0.12 µM
SMILES: C=CC1=C(C)c2cc3[nH]c(cc4nc(cc5[nH]c(cc1n2)c(C)c5CCC(=O)O)C(CCC(=O)O)=C4C)c(C)c3C=C [PIX]
